Laboratory results from patent publication US8227510B2, “Combine use of pterostilbene and quercetin for the production of cancer treatment medicaments” (Universitat de Valencia, priority 2004, dated 2012).
Marks after values point to notes of the source that are not given here.

Experiments:
[1] = tested on: Bcl-2; test: Intracellular levels of Bcl-2 in B16M-F10 cells (enzyme immunoassay); type: cell-based, mouse; conditions: t-PTER 40 μM, QUER 20 μM, 60 minutes at 6, 30 and 54 hours, none 35 ± 5
Description: (§1) The Tet-off gene expression system (Clontech, Palo Alto, Calif., USA) was used for inserting the mouse bcl-2 gene and transfecting the B16M-F10 cells, as described previously (26) and following the manufacturer's instructions. The protein Bcl-2 was quantified in the soluble cytosolic fraction by enzyme immunoassay (27) using a test based on a monoclonal antibody from Sigma (San Luis, Mo., USA) (a Bcl-2 unit was defined as the amount of Bcl-2 protein in 1000 non-transfected B16M-F10 cells).
(§2) This methodology makes it possible for the effect of PTER and QUER to be studied in vivo. For this purpose, mice were inoculated with B16M-F10 control cells or B16M-F10/Tet-Bcl-2 which overexpressed Bcl-2. […] The number of adhering cells shown in the table was calculated at 60 minutes postinjection (no significant differences were found when the measurements were effected at 30, 120, 180, 240 or 360 minutes postinjection, data not shown). The number of intact cells was calculated at 6 hours postinjection. […] The growth of metastases in the liver was evaluated as stated in the corresponding section of the description, and in this case the mice were treated daily (×10 days) with t-PTER and/or QUER (20 mg/kg of body weight) administered i.v. (the data are mean values±SD corresponding to 25 mice per group). […]

[2] = tested on: Bcl-2; test: Intracellular levels of Bcl-2 in B16M-F10/Tet-Bcl-2 cells (enzyme immunoassay); type: cell-based, mouse; conditions: same exposure, none 160 ± 25
Description: as §1, §2

[3] = tested on: B16M-F10 cells; test: In vivo microscopy: B16M-F10 cells adhering to the HSE and intact cells; set-up: species or system mice; conditions: for Intact cells: B16M-F10, 6 hours postinjection, none 83 ± 14; for Number of cells adhering to the HSE: B16M-F10 precultured with polyphenols, 60 minutes postinjection, none 45 ± 7
Protocol: (§3) Hepatic metastases were induced by i.v. inoculations (portal vein), in anesthetized mice (Nembutal, 50 mg/kg i.p.), of 4×10^5 viable B16M-F10 cells suspended in 0.2 ml of DMEM. The mice were sacrificed by cervical dislocation 10 days after inoculation. The livers were fixed by immersion for 24 hours at 22° C. in 10% formaldehyde in PBS (pH 7.4), and were subsequently embedded in paraffin. The density of metastases (average number of foci/100 mm^3 of liver detected in fifteen sections of 10×10 mm^2 per liver) and the volume of metastases (average percentage of liver volume occupied by metastases) were determined as described previously (22).
(§4) This methodology makes it possible for the effect of PTER and QUER to be studied in vivo. For this purpose, mice were inoculated with B16M-F10 control cells or B16M-F10/Tet-Bcl-2 which overexpressed Bcl-2. Both subgroups of cells were cultivated beforehand in the absence or in the presence of t-PTER and QUER. B16M-F10 cells were cultivated for 72 hours. t-RESV (12 μM), t-PTER (40 μM), and QUER (20 μM) were added at 6, 30 and 54 hours of culture time, and were present in each case for just 60 minutes. Then they were removed from the culture flasks by washing (3 times with PBS) and the medium was renewed. The levels of Bcl-2 in the B16M-F10 control cells and cells treated with Tet-Bcl-2 were 24±5 and 105±14 units/mg of protein, respectively (n=5 in each case, P<0.01). The number of adhering cells shown in the table was calculated at 60 minutes postinjection (no significant differences were found when the measurements were effected at 30, 120, 180, 240 or 360 minutes postinjection, data not shown). The number of intact cells was calculated at 6 hours postinjection. The experimental microscopy data in vivo are mean values±SD corresponding to 4-5 different experiments. The growth of metastases in the liver was evaluated as stated in the corresponding section of the description, and in this case the mice were treated daily (×10 days) with t-PTER and/or QUER (20 mg/kg of body weight) administered i.v. (the data are mean values±SD corresponding to 25 mice per group). A similar method and equal number of mice per group were used for evaluating the survival of the carrier animals. The test of significance relates, in all the groups, to comparison between cases with PTER and/or QUER and cases without additions (*P<0.05 and **P<0.01), and to comparison between the B16M-F10/Tet-Bcl-2 cells with the B16M-F10 control cells (^+P<0.05, ^++P<0.01). […] This is the first time that the combined administration in vivo of natural polyphenols has induced inhibition of metastatic growth of a highly malignant tumor and an increase in the survival of the carrier.

[4] = tested on: B16M-F10/Tet-Bcl-2 cells; test: In vivo microscopy: B16M-F10/Tet-Bcl-2 cells adhering to the HSE and intact cells; set-up: species or system mice; conditions: for Intact cells: B16M-F10/Tet-Bcl-2, 6 hours postinjection, none 85 ± 13; for Number of cells adhering to the HSE: B16M-F10/Tet-Bcl-2 precultured with polyphenols, 60 minutes postinjection, none 42 ± 6
Protocol: as §3, §4

[5] = tested on: B16M-F10; test: Growth of hepatic metastases of B16M-F10 in mice; type: in vivo; conditions: 20 mg/kg i.v. daily x10 days; for Volume of metastases: none 22 ± 4; for Density of metastases: none 27 ± 5
Protocol: as §3, §4

[6] = tested on: B16M-F10/Tet-Bcl-2; test: Growth of hepatic metastases of B16M-F10/Tet-Bcl-2 in mice; type: in vivo; conditions: 20 mg/kg i.v. daily x10 days; for Volume of metastases: none 25 ± 6; for Density of metastases: none 29 ± 5
Protocol: as §3, §4

[7] = tested on: B16M-F10; test: Survival of mice carrying B16M-F10 metastases; type: in vivo; conditions: for Survival of the carrier: B16M-F10, 20 mg/kg i.v. daily, none 13 ± 2
Protocol: as §3
This methodology makes it possible for the effect of PTER and QUER to be studied in vivo. For this purpose, mice were inoculated with B16M-F10 control cells or B16M-F10/Tet-Bcl-2 which overexpressed Bcl-2. Both subgroups of cells were cultivated beforehand in the absence or in the presence of t-PTER and QUER. B16M-F10 cells were cultivated for 72 hours. t-RESV (12 μM), t-PTER (40 μM), and QUER (20 μM) were added at 6, 30 and 54 hours of culture time, and were present in each case for just 60 minutes. Then they were removed from the culture flasks by washing (3 times with PBS) and the medium was renewed. The levels of Bcl-2 in the B16M-F10 control cells and cells treated with Tet-Bcl-2 were 24±5 and 105±14 units/mg of protein, respectively (n=5 in each case, P<0.01). The number of adhering cells shown in the table was calculated at 60 minutes postinjection (no significant differences were found when the measurements were effected at 30, 120, 180, 240 or 360 minutes postinjection, data not shown). The number of intact cells was calculated at 6 hours postinjection. […] The growth of metastases in the liver was evaluated as stated in the corresponding section of the description, and in this case the mice were treated daily (×10 days) with t-PTER and/or QUER (20 mg/kg of body weight) administered i.v. (the data are mean values±SD corresponding to 25 mice per group). […]

Row | SMILES | Intracellular levels of Bcl-2 before inoculation [1] | Intracellular levels of Bcl-2 before inoculation [2] | Intact cells [3] | Number of cells adhering to the HSE [3] | Intact cells [4] | Number of cells adhering to the HSE [4] | Volume of metastases [5] | Density of metastases [5] | Volume of metastases [6] | Density of metastases [6] | Survival of the carrier [7] [days] | effect on survival of the carrier host ([7]; B16M-F10 control cells, daily i.v. administration)
1 | COc1cc(/C=C/c2ccc(O)cc2)cc(OC)c1 [PTER, pterostilbene] | 21 ± 4** units/mg protein | 151 ± 18^++ units/mg protein | 85 ± 17 percentage of cells adhering t | 20 ± 5** average number per lobe | 91 ± 20 percentage of cells adhering t | 21 ± 4** average number per lobe | 14 ± 4** percentage of liver volume | 18 ± 4** number of foci/100 mm^3 | 15 ± 3** percentage of liver volume | 15 ± 3** number of foci/100 mm^3 | 15 ± 2 | –
2 | O=c1c(O)c(-c2ccc(O)c(O)c2)oc2cc(O)cc(O)c12 [QUER, quercetin] | 9 ± 3** units/mg protein | 125 ± 13*^++ units/mg protein | 52 ± 8** percentage of cells adhering t | 46 ± 9 average number per lobe | 87 ± 13^++ percentage of cells adhering t | 40 ± 7 average number per lobe | 12 ± 3** percentage of liver volume | 15 ± 4** number of foci/100 mm^3 | 24 ± 5^++ percentage of liver volume | 26 ± 516^++ number of foci/100 mm^3 | 15 ± 1 | neither of these compounds significantly increased the survival
